Measurements taken from patent US5143903A, “Method of treatment with tripeptide pharmaceutical compositions as immunomodulators” (priority 1989, dated 1992).

Columns and labels:
[1] = test system: Mononuclear cells of peripheral human blood (PBMC); assay: Test on the proliferation of mononuclear cells; format: cell-based; set-up: key: expressing with +, ++ and +++ the substances acting as stimulants (from the least to the most effective); expressing with +, ++ and +++ the substances acting as stimulants (from the least to the most effective); expressing with +, ++ and +++ the substances acting as stimulants (from the least to the most effective); with -, -- and --- the substances inhibiting normal cell growth; with -, -- and --- the substances inhibiting normal cell growth; with -, -- and --- the substances inhibiting normal cell growth; The inactive compounds were expressed with =; separating with / the effects of the higher doses from those of the lower doses; settings: Table 2, tritium thymidine; for Effect on cell proliferation, ACTIVATOR USED Interl. 2: PBMC activated with Interleukin 2, 6 days
Protocol: Mononuclear cells of peripheral human blood (PBMC), provided by healthy volunteers, were purified according to techniques normally used in haematology laboratories, and were finally suspended, at a concentration of 1.000.000/ml in the bed RPMI 1640 (company Flow Laboratories), enriched with 10% of heat inactivated human serum, 2 mM of glutamine and 40 mcg/ml of Gentalyn (from Shering Co.).
The cells were cultivated (100.000/pit) in triplicate on plates of 96 flat-bottomed pits, for a varying number of days according to the activating substances used (6 days for Interleukin 2 and PPD, 3 days for PHA and ConA), in 200 microliters of the suspension bed, in an incubator at 37° C. with 5% CO2. During the last 17 hours of culture the cells were marked with 0,5 microCuries of tritium thymidine (TdR). At the end of the incubation period, the radioactivity present in the cells was gathered on fiberglass filters. Embedded TdR was measured in a beta-radiation counter.
The results are expressed as arithmetic averages of the counts.
On the cells cultivated in this manner the effect of the substances derived from snake poison was tested.
Using the same methods employed in the test described above, a series of compounds having a peptide structure according to the invention, along with other control compounds, were tested for their imunomodulant activity.

T lymphocites = assay: Comparison with Interferon gamma: proliferative response of T lymphocites after presentation of B lymphocites treated with PPD; format: cell-based; settings: 1000 u/ml
Excerpt: With the aim of more detailed study of the mechanism of action, the effect of the tripeptide PYR-LEU-TRP has been compared to that of Interferon gamma as regards the stimulation of the proliferative response of T lymphocites after presentation of the B lymphocites treated with PPD.

Row | Molecule | Effect on cell proliferation, ACTIVATOR USED Interl. 2 [1] | Effect on cell proliferation, ACTIVATOR USED PPD ([1]; PBMC activated with PPD, 6 days) | increase of the basal proliferative response (T lymphocites)
1 | CC(C)C[C@H](NP(=O)(O)O[C@@H]1O[C@@H](C)[C@H](O)[C@@H](O)[C@H]1O)C(=O)N[C@@H](Cc1c[nH]c2ccccc12)C(=O)O [Phosphoramidon] | +++ | +++ | –
2 | Z--PRO--LEU--TRP | +++ | – | –
3 | gamma Interferon: Interferon gamma, compared with the tripeptide at 1000 u/ml | – | – | approximately two and a half times
